Earlier results as cited in PubChem BioAssay AID1259409 (Chemical Carcinogenesis Research Information System (CCRIS), 2018).

Test system: rodent chemically induced tumor inhibition, incidence and multiplicity
Experiment: CCRIS tumor inhibitor studies
Conditions: Carcinogen: DIETHYLNITROSAMINE, 55-18-5, N-METHYLNITROSOUREA, 684-93-5, 1,2-DIMETHYLHYDRAZINE, 540-73-8, N-BUTYL-N-(4-HYDROXYB, Carcinogen: DIETHYLNITROSAMINE, 55-18-5, N-METHYLNITROSOUREA, 684-93-5, 1,2-DIMETHYLHYDRAZINE, 540-73-8, N-BUTYL-N-(4-HYDROXYB, Dose [Inhibitor]: 0, Route [Inhibitor]: ORAL, Species: RAT, Strain/Sex: F344/MALE, Dose [Carcinogen]: 100 MG/KG DEN ONCE, 20 MG/KG MNU 4 TIMES, 40 MG/KG DMH 4 TIMES, 0.05% BBN IN DRINKING WATER FOR 2 WK, 0.1% DHPN IN D, Dose [Carcinogen]: 100 MG/KG DEN ONCE, 20 MG/KG MNU 4 TIMES, 40 MG/KG DMH 4 TIMES, 0.05% BBN IN DRINKING WATER FOR 2 WK, 0.1% DHPN IN D, Promoter: NONE USED

Question: Which “tumour outcome (control, treated, inhibition, significance)” value (1% IN DIET FOR 4 WK BEGINNING 1 DAY PRIOR TO CARCINOGEN TREATMENT (STUDY DURATION: 36 WK), Target Tissue: Type of Lesion: LUNG: ADENOMA) does the source give for O=c1c(O)c(-c2ccc(O)c(O)c2)oc2cc(O)cc(O)c12 here?
Answer: 6/14 (43%), 2/13 (15%), 65%, not significant

Question: What about the “tumour outcome (control, treated, inhibition, significance)” value (1% IN DIET FOR 4 WK BEGINNING 1 DAY PRIOR TO CARCINOGEN TREATMENT (STUDY DURATION: 36 WK), Target Tissue: Type of Lesion: SMALL INTESTINE: ADENOMA) of the same compound?
Answer: 6/14 (43%), 1/13 (8%), 81%, p<0.05

Question: And the “tumour outcome (control, treated, inhibition, significance)” value (1% IN DIET FOR 4 WK BEGINNING 1 DAY PRIOR TO CARCINOGEN TREATMENT (STUDY DURATION: 36 WK), Target Tissue: Type of Lesion: SMALL INTESTINE: CARCINOMA)?
Answer: 5/14 (36%), 2/13 (15%), 58%, not significant

Question: And the “tumour outcome (control, treated, inhibition, significance)” value (1% IN DIET FOR 32 WK BEGINNING POST CARCINOGEN TREATMENT (STUDY DURATION: 36 WK), Target Tissue: Type of Lesion: KIDNEY: ADENOMA)?
Answer: 4/14 (29%), 3/12 (25%), 14%, not significant

Question: What about the “tumour outcome (control, treated, inhibition, significance)” value (1% IN DIET FOR 32 WK BEGINNING POST CARCINOGEN TREATMENT (STUDY DURATION: 36 WK), Target Tissue: Type of Lesion: KIDNEY: NEPHROBLASTOMA) of the same compound?
Answer: 7/14 (50%), 4/12 (33%), 34%, not significant

Question: What about the “tumour outcome (control, treated, inhibition, significance)” value (1% IN DIET FOR 32 WK BEGINNING POST CARCINOGEN TREATMENT (STUDY DURATION: 36 WK), Target Tissue: Type of Lesion: LARGE INTESTINE: CARCINOMA) of the same compound?
Answer: 3/14 (21%), 4/12 (33%), -57%, not significant
